Data taken from patent publication US12195706B2, “Formation of arrays of planar intestinal crypts possessing a stem/proliferative cell compartment and differentiated cell zone” (THE UNIVERSITY OF NORTH CAROLINA AT CHAPEL HILL, priority 2018, dated 2025).

How the values were obtained:
[1] = system: mouse intestinal epithelial cells; experiment: Effect of short chain fatty acids on proliferation and differentiation on planar crypt arrays; type: cell-based; conditions: day 3-4 (DM/EM); for ALP activity relative to the control / normalized area of EdU+ cells compared to control without short chain fatty acid: 24 mM acetate, 6 mM propionate or 1 mM butyrate in DM luminal medium; for ALP activity relative to the control: ALP+ area normalized to Hoechst 33342 area; for normalized area of EdU+ cells compared to control without short chain fatty acid: EdU+ area normalized to Hoechst 33342 area
Procedure: EM was replaced with fresh EM every 2 days. The cells were sub-cultured every 3-5 days by degrading collagen with collagenase and dissociating the cells with 0.5 mM EDTA into clumps of cells. […] When placing cells onto the surface of the microdevice, the cell suspension was diluted 1 to 2 in EM and overlaid onto the microdevice surface. The cells were cultured for 2 days with EM placed into the luminal and basal reservoirs of the Transwell cassette. On day 2, the luminal and basal media were changed as described in Table 3, below, and the cells incubated for a day. On day 3, the luminal and basal media were replaced with fresh media (identical to that from day 2 replacement) and the cells incubated for another day. In some experiments, the medium in the luminal compartment was replaced differentiation medium (DM, see Table 2) which is similar to EM but lacking in key growth factors required to support intestinal stem cells.
Cells in the S phase of the cell cycle were incubated with a pulse of 5-ethynyl-2′-deoxyuridine (EdU) pulse following the manufacturers' protocols (Click-iT EdU Alexa Fluor 647 Imaging kit, C10340, Thermo Fisher Scientific, Waltham, Massachusetts, United States of America). EdU is a nucleotide analog incorporated into DNA as it is replicated in S phase. In brief, EdU (10 μM) was added to the luminal and basal media and the cells were incubated for 3 h at 37° C. The cells then were washed with PBS and fixed with 4% paraformaldehyde in PBS for 15 min and permeabilized with 0.5% Triton-X for 20 min at 25° C. EdU incorporated into cellular DNA was visualized by reaction with Alexa 647 via click chemistry following the manufacturer's protocol (Click-iT EdU Alexa Fluor 647 Imaging kit, C10340, Thermo Fisher Scientific, Waltham, Massachusetts, United States of America).
Cell monolayers were assayed for alkaline phosphatase (ALP) activity on day 4 of culture by incubation with ALP substrate mixture (Vector Red AP substrate kit, SK-5100, Vector Laboratories Inc., Burlingame, California, United States of America) in Tris buffer (pH 8.4) for 30 min at 37° C. Then cells were washed with PBS, fixed and permeabilized as described above. To label cell DNA, Hoechst 33342 (2 μg/mL, B2261, Sigma Aldrich, St. Louis, Missouri, United States of America) was incubated with cells (1 h, 25° C.).
The […] ® insert (Corning, Inc., Corning, New York, United States of America) with cell layer from the microdevice was placed into a 12-well plate under PBS and imaged using a FLUOVIEW® FV3000® confocal microscope (Olympus Corporation, Tokyo, Japan) confocal microscope (10×, objective, numerical aperture of 0.4). Alexa 647, Vector-Red-ALP, and Hoechst 33342 were excited with a 640, 561, and 405 nm laser, respectively and the fluorescence emission was collected at 650-750 nm, 570-590 nm, and 430-470 nm, respectively. The images were analyzed with the Fiji software package. […] For all experiments, the numbers of sample sizes were estimated using a statistical power analysis based on the data from Wang et al. (Cellular and Molecular Gastroenterology and Hepatology, 2017, 4, 165-182) measuring EdU+ and ALP activities under varying conditions (α=0.05, β=0.85) using G*Power. […] A one-way ANOVA analysis was used for all statistical analyses of data obtained from the fluorescence microscopy images.

[2] = system: intestinal tumor cell lines; conditions: cited from earlier work

SMILES	ALP activity relative to the control [1]	normalized area of EdU+ cells compared to control without short chain fatty acid [1]	proliferation in intestinal tumor cell lines [2]	decrease of the number of Hoechst 33342+ cells per crypt ([1]; 1 mM butyrate in DM luminal medium, vs control crypts, p<0.001)
CCC(=O)O [propionate]	significantly increased	significantly decreased	suppress proliferation	–
CCCC(=O)O [butyrate]	–	–	–	about 17%
CC(=O)O [acetate]	significantly decreased	significantly increased	–	–
